Experimental data from publication PMC7363133, “The structure and reactivity of the HoxEFU complex from the cyanobacterium Synechocystis sp. PCC 6803” (The Journal of Biological Chemistry, 2020).

Target: T1, HoxEFU (Synechocystis sp. PCC 6803, UniProt P74024)
T1 construct: gene hoxF; heterotrimeric diaphorase subcomplex without HoxYH; Strep-II tag with Ser-Ala linker at C-terminus of HoxF; codon-optimised, pET21, E. coli BL21 deltaiscR; anaerobic purification; with Bidirectional [NiFe] hydrogenase diaphorase subunit HoxE; Bidirectional [NiFe] hydrogenase diaphorase subunit HoxU
T1 sequence (P74024 1-533): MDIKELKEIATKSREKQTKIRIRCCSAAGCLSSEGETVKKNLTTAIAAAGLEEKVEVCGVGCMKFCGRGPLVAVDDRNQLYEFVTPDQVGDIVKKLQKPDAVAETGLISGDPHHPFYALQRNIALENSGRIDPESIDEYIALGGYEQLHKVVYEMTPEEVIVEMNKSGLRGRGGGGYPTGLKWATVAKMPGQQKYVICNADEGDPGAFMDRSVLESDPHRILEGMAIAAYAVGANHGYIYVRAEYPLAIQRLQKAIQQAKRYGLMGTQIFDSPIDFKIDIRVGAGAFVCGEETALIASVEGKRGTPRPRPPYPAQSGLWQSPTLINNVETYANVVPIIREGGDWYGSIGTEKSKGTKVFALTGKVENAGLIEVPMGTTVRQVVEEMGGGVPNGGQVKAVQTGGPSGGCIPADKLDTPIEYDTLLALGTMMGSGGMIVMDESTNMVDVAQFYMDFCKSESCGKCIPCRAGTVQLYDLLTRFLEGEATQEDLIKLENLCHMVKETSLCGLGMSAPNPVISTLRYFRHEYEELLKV
T1 sequence (P74025 1-173 partner): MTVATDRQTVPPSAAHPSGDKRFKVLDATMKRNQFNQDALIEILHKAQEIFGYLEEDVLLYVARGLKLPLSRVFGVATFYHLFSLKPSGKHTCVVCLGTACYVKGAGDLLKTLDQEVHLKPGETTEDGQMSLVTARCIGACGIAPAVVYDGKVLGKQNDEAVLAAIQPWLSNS
T1 sequence (P74022 1-238 partner): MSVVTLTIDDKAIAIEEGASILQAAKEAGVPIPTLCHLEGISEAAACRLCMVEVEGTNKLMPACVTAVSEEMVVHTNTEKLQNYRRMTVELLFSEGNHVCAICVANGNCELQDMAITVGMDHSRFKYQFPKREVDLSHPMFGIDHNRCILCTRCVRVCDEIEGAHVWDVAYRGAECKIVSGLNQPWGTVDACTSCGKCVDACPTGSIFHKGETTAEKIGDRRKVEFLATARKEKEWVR
Experiment: intrinsic protein fluorescence/FRET titration, equilibrium binding isotherm
Conditions: Hill fit (cooperative); excitation 285 nm, emission 348 nm

Q: With `NC(=O)c1ccc[n+]([C@@H]2O[C@H](COP(=O)(O)OP(=O)(O)OC[C@H]3O[C@@H](n4cnc5c(N)ncnc54)[C@H](O)[C@@H]3O)[C@@H](O)[C@H]2O)c1` [NAD^+] as the molecule, how does the Kd read?
A: The Kd was 1350 ± 70 µM.

Q: For `NC(=O)C1=CN([C@@H]2O[C@H](COP(=O)(O)OP(=O)(O)OC[C@H]3O[C@@H](n4cnc5c(N)ncnc54)[C@H](O)[C@@H]3O)[C@@H](O)[C@H]2O)C=CC1` [NADH], which Kd is on record?
A: The Kd was 32 µM.

Q: `NC(=O)c1ccc[n+]([C@@H]2O[C@H](COP(=O)(O)OP(=O)(O)OC[C@H]3O[C@@H](n4cnc5c(N)ncnc54)[C@H](OP(=O)(O)O)[C@@H]3O)[C@@H](O)[C@H]2O)c1` [NADP^+] was tested. Which Kd did it give?
A: Its Kd is 1950 ± 270 µM.
